“Also recorded” adds a separate entry of the source. Starred links: 1 amine or outer side, 2 acyl side, 3 side chain; linkers in the order of their positions; H or OH if unused. Residues, ends and D or L forms follow the SMILES beside them. *: point of attachment. AFC = O=c1cc(C(F)(F)F)c2ccc(N*)cc2o1; Morpholide = C1CN(*)CCO1; Cbz = O=C(OCc1ccccc1)*; CO = O=C([*:1])[*:2]; CH2F = FC*
Tests used:
[1] = test system: purified Taenia solium cysteine protease; assay: Screen of AFC-linked synthetic substrates for cleavage (Step II); format: biochemical; conditions: pH 4.9, 18 h, 37° C
Method: In this step, the most efficacious substrate for detection of the cysteine protease (high Kcat substrate) was determined in vitro along with those substrates which were not well cleaved (low kcat substrates). From this point forth, the following conditions refer to all assays: “assay buffer” refers to 0.4 M Citrate, pH 4.9 (the pH optima of the protease). Incubation time was 18 hours at 37° C. These conditions were determined by our preliminary data to be best for kinetic evaluation of the protease. […] The experiments were conducted in […] Borosilicate mini-culture tubes (Fisher Scientific), and a fluorometer (Turner) was employed for detection of AFC cleavage.
Approximately 1 ug (or a proteolytically detectable amount) of the purified target cysteine protease was incubated individually, with 1 μg of each of the available substrates in 500 μL of assay buffer. During this setup, the substrate was pre-incubated in the assay buffer for a short period of time (20 minutes) in order to reach an equilibrated status before the addition of the protease. Cleavage assessments were based upon the property of the protease to cleave synthetic peptide substrates linked at the C-terminus to 7-Amino-4-Trifluoromethyl Coumarin (AFC) as previously described. AFC linked tripeptides, dipeptides, and monopeptides, (with a variety of permutations at P3-P1) were available from Enzyme Systems Products (Livermore, CA), and were used as the source of the subset. Following incubation of enzyme preparations overnight (18 h, 37 ° C.) with peptide in assay buffer (Citrate, pH 4.9, supplemented with 0.01 M cysteine), free AFC concentrations were measured fluorometrically (excitation […]). The proteolytic cleavage released the AFC group, which was measurable as a free molecule by a standard fluorometer and converted into molar quantities, based upon a previously established standard curve. The simplicity of AFC detection by the fluorometer was a key factor which quickened and simplified the procedures.
In the assay, 1 ug of the purified Taenia cysteine protease was added to a saturating amount of Z-Phe-Arg-AFC (4×10^−5 M) in assay buffer. The experiment was conducted in triplicate and repeated at least 5 times until we were certain that variability in AFC cleavage was not statistically significant.
Vmax was calculated for the cleavage of substrates by the purified target protease and Vmax was calculated for substrates cleaved by the crude mix protease using conventional kinetic modeling calculations already described in the art.

[2] = test system: Taenia crassiceps cysts; assay: Short-term prophylactic protection of BALB/c mice from cysticercosis infection; format: in vivo; conditions: pre-injected two days, 10 T. crassiceps cysts/mouse, dosed daily four weeks, intraperitoneal; vs untreated controls
Method: FIG. 8. […] Each treated mouse was pre-injected intraperitoneally with inhibitor for two days. During treatment phase, each treated mouse received 1.48×10^−2 μg/μl of N2 daily for three weeks and every other day during the last week. Injections were carried out in 150 μl of dimethyl sulfoxide for each mouse. Both treated groups and positive controls were challenged intraperitoneally with 10 Taenia crassiceps cysts in 200 μl 0.15M PBS at the time of initial infection. After one month of infection, both groups were euthanized and cysts removed by washing with sterile 0.15M PBS. A minimum of two attached cysts were scored as multilobed (ML). […] (B) Graphically represents the effect of protease inhibitor treatment of BALB/c mice challenged with Taenia crassiceps cysts over a long-term period. Mice were divided into treated and untreated groups (5 mice/group).Each mouse in the treated group was pre-injected intraperitoneally with inhibitor for two days. […] Cysts were then counted by visual inspection. […]
Based upon the premise that the cyst wall cysteine protease may serve a critical finction to the life cycle of the Taenia cyst, we tested our most efficacious inhibitors, LLL-FMK and LLY-FMK (K-Pyr was used as a control), for their abilities to protect mice from cysticercosis infection. […] After one month, the mice were euthanized and the cysts counted. […]

[3] = test system: T crassiceps cysts; assay: Therapeutic study in BALB/c mice infected with T crassiceps cysts; format: in vivo, Taenia crassiceps; conditions: inhibitor treatment began two weeks after infection
From the text: Mice in all groups survived without noticeable side effects (e.g., coat condition, tail dragging or paresis, etc).

[4] = test system: Taenia crassiceps cysts; assay: Scanning electron microscopy of surfaces of cysts removed from treated mice; format: in vivo
From the text: FIG. 9. Scanning electron microscopy of the surface of cysts removed from untreated mice versus cysts removed from treated mice. Magnifications are identical for both slides in each panel. panel A (4000×). […] No immune cells were seen on cysts removed from untreated mice. Panel B (25,000×). […] Microtriches in untreated cysts can be seen to be visibly longer. Visible anchors were also noted for the untreated cysts group, whereas these anchors were not observed in microtriches from treated cysts.
For example, we hypothesized that the cysteine protease was a key parasitic molecule to allow the cyst to evade the host immune response, by cleaving host antibodies. By inhibiting the Taenia cysteine protease with Z-LLY-FMK, we hypothesized that host immunoglobulin could now bind the parasites, and initiate immunological responses (e.g., complement via IgG2a) which would cause damage to the cyst wall. […] We identified macrophages, neutrophils, fibroblasts, and collagenous deposits on the cyst surfaces from treated mice, in comparison to their absence on cysts from untreated mice. General surface atrophy was also apparent. […] Breaks in the integrity of the cyst surface were also noted for the cysts removed from treated mice. […] Cysts removed from untreated mice were characterized by no immune cells, intact and longer microtriches, and homogeneity of the cyst surface.

## CC(C)C[C@H](NC(=O)N1CCOCC1)C(=O)N[C@@H](Cc1ccc(O)cc1)C(=O)Nc1ccc2c(C(F)(F)F)cc(=O)oc2c1 [Mu-LY-AFC, Mu-Leu-Tyr-AFC] ({Morpholide-CO}-Leu-Tyr-{AFC})
[1]
  cleavage as substrate (Vmax): noncleavable

## CC(C)C[C@H](NC(=O)[C@H](CC(C)C)NC(=O)[C@H](CC(C)C)NC(=O)OCc1ccccc1)C(=O)CF [Z-LLL-FMK, Z-Leu-Leu-Leu-fluoromethylketone] (Cbz-Leu-Leu-Leu-CH2F)
[2]
  % Prophylactic protection of BALB/c mice: 100%
[3]
  % Therapeutic protection of BALB/c mice: 60%

## CC(C)C[C@H](NC(=O)OCc1ccccc1)C(=O)N[C@@H](CC(C)C)C(=O)N[C@@H](Cc1ccc(O)cc1)C(=O)CF [Z-LLY-FMK, Z-Leu-Leu-Tyr-FMK] (Cbz-Leu-Leu-Tyr-CH2F)
[4]
  Immune cells observed by SEM on cyst surfaces: vigorous host immune response; also recorded: presence of adherent immune cells; also recorded: Intense
